# Laboratory results as given in patent US12110287B2, “Heterocyclic derivatives as Nav1.7 and Nav1.8 blockers” (RaQualia Pharma Inc., priority 2018, dated 2024).
# Legend:
# [1] = molecular target: T1, Nav1.7 (Homo sapiens, UniProt Q15858); assay: Electrophysiology assay (whole cell patch clamp), affinity to inactivated state; assay type: cell-based; parameters: expressed in transfected cells; details: affinity to inactivated state (Kinact), read-out: activity (Ki) against Nav1.7
# Experimental: Whole cell patch clamp recording is used to assess the efficacy or selectivity of Na (Sodium) channel blocker on human voltage gated sodium channels. Na channel expressing cells are dissociated by 0.05% Trypsin-EDTA or Accutase, and then seeded on cover glass for 2-24 hours.
# Manual patch clamp recordings are conducted at rt using the voltage-clamp amplifier (Axon Instruments or HEKA electronik). Electrodes are pulled with P-97 electrode puller (Sutter Instrument). The electrode resistances are 1-3 MOhm when intercellular solution is filled. Currents are lowpass filtered between 2-5 kHz and digitally sampled at 10 kHz. […]
# After whole-cell configuration is achieved, cell is monitored at least 10 minutes to allow cell dialysis with pipette solution. […]
# Peak currents evoked by Test 1 and Test 2 pulses are sampled with Clampex (Axon Instruments) or Pulse+Pulse Fit (HEKA). Averaged peak currents under vehicle or test compounds are calculated from 3 data points at end of each condition.
# Inhibitory effects (% inhibition) on peak currents at Test 1 or Test 2 pulse are plotted against test concentration and IC50 values at Test 1 (Closed IC50) or Test 2 (Inactivated IC50) are calculated with Hill equation, respectively. […]
# After whole-cell configuration is achieved, the cell is monitored at least 10-15 minutes to allow cell dialysis with pipette solution. […]
# [2] = molecular target: T1, Nav1.7; assay: EFS-FRET assay; assay type: cell-based; parameters: expressed in transfected cells; host or cells: CHO (Chinese hamster ovary) cells; details: CHO cells expressing human Nav1.7 channels, read-out: IC50 against Nav1.7
# Experimental: This screen is used to determine the effects of compounds on human Nav1.7 channels, utilizing electrical field stimulation (EFS) system in 96-well plate format on FDSS (Hamamatsu Photonics) platform. The changes of membrane potential are monitored with FRET dye pair, DiSBAC2(3) and PTS18.
# CHO (Chinese hamster ovary) cells expressing human Nav1.7 channels are grown in T225 flasks, in a 5% CO2 humidified incubator to about 80% confluence. Media composition consists of HAM/F12 with Glutamax I, 10% FCS, 100 units/mF penicillin and 100 microgram/mF hygromycin.
# • Seed each cell lines (1×10^5 cells/well) into 96-well plates prior to experimentation. • Incubate at 37° C. in 5% CO2 for 24 hours. • Wash each well with assay buffer (140 mM NaCl, 4.5 mM KCl, 10 mM D-Glucose, 2 mM CaCl2, 1 mM MgCl2, 10 mM HEPES, pH 7.4 adjusted with NaOH) twice. • Add 1st loading solution containing 10 microM PTS18 and 0.06% Pluronic F-127 in assay buffer. • Incubate the plate at rt in dark for 1 hour. • Remove 1st loading solution and add 2nd loading solution containing 12.5 microM DiSBAC2(3), 1.25 mM Xylene Fast Yellow and 0.0075% Pluronic F-127 in assay buffer. • Place the plate under the dark at rt for 25 minutes. • Add compound solutions into the assay plate. • Set the assay plate in FDSS and place an EFS device on the plate. • Measure EFS-induced fluorescent response by FDSS.
# The data are analyzed and reported as normalized ratios of intensities measured at […]. The process of calculating these ratios is performed as follows:
# This analysis is performed using a computerized specific program designed for FDSS generated data. Fluorescence ratio values are plotted using XLfit to determine an IC50 value for each compound.
# T1 sequence (Q15858 whole entry): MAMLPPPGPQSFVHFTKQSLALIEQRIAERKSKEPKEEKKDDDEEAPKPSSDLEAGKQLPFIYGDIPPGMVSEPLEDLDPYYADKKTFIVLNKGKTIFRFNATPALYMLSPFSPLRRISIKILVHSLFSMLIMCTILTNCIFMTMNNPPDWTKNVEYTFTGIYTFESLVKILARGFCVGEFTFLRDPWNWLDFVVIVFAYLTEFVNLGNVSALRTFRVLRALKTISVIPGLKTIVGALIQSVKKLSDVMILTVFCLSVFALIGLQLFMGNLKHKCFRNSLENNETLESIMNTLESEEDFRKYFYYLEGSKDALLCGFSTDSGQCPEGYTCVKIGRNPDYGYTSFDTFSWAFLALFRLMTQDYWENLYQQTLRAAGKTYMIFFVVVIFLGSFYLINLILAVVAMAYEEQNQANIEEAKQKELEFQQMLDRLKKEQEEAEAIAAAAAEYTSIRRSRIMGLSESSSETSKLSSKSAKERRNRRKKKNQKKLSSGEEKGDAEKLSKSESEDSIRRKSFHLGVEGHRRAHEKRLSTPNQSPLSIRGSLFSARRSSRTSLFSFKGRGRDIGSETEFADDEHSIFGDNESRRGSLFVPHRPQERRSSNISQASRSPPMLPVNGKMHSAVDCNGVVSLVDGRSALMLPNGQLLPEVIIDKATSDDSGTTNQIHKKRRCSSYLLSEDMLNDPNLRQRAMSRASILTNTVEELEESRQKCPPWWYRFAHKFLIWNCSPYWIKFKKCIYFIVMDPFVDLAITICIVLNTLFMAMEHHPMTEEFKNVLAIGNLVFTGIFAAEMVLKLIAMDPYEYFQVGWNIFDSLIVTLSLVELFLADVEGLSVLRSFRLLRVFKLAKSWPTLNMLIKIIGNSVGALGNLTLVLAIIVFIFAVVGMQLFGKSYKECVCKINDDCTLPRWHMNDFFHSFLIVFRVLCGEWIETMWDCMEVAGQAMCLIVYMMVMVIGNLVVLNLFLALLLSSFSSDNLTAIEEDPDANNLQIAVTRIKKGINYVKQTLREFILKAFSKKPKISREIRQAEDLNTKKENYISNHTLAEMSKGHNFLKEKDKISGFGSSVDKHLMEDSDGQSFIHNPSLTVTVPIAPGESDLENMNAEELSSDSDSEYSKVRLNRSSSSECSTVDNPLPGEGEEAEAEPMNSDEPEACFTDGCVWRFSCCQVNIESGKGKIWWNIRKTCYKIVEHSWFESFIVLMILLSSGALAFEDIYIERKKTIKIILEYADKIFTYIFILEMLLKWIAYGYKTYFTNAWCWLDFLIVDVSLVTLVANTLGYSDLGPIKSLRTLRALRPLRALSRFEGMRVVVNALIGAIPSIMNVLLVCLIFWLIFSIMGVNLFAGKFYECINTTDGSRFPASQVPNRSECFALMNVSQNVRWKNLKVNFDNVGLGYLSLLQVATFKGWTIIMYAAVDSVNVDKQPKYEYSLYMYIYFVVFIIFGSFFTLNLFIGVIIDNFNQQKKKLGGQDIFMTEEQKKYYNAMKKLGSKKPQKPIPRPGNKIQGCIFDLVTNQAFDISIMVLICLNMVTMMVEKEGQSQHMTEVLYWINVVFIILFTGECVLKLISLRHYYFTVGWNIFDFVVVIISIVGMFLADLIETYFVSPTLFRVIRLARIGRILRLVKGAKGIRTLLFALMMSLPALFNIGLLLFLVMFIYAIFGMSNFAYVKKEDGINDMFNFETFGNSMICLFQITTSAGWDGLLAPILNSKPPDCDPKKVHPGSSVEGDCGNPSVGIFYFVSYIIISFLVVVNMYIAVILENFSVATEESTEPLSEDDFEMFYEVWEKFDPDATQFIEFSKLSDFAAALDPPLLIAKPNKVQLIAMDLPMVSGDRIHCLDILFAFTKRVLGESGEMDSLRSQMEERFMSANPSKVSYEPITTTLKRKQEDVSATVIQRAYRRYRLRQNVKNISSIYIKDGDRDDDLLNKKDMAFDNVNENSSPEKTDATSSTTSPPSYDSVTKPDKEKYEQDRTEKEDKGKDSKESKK
Compound,Ki [1] [nM],IC50 [2] [nM]
O=C(N[C@@H]1CCN(c2ncc(C(F)(F)F)cc2Cl)C1)c1ccnc(NC(=O)C2CC2)c1 [Example 9],< 200,< 500
CCC(=O)Nc1cc(C(=O)N[C@@H]2CCCN(c3ccc(OC(F)(F)F)cc3Cl)C2)ccn1 [Example 129],–,< 500
Cc1cc(C(=O)N[C@@H]2CCCN(c3ccc(OC(F)(F)F)cc3Cl)C2)nc(NC(=O)C2CC2)n1 [Example 132],–,< 500
